Laboratory results as given in ChEMBL document CHEMBL3132846 (Medchemcomm, 2014).
pIC50: −log10 of the molar value. The source made the active and inactive calls. The calls are words filed in the database; no cut-off is given here.

Tests used:
MCF7 = test: Cytotoxicity against human MCF7 cells after 48 hrs by MTT assay; format: functional, cell-based; settings: MCF7, 48 h
HL-60 = test: Cytotoxicity against human HL60 cells after 48 hrs by MTT assay; format: functional, cell-based; settings: HL-60, 48 h
SiHa = test: Cytotoxicity against human SiHa cells after 48 hrs by MTT assay; format: functional, cell-based
A549 = test: Cytotoxicity against human A549 cells after 48 hrs by MTT assay; format: functional, cell-based; settings: A549, 48 h
Ishikawa = test: Cytotoxicity against human Ishikawa cells after 48 hrs by MTT assay; format: functional, cell-based
HeLa = test: Cytotoxicity against human HeLa cells after 48 hrs by MTT assay; format: functional, cell-based
BeWo = test: Cytotoxicity against human Bewo cells after 48 hrs by MTT assay; format: functional, cell-based
HUVEC [1] = test: Antiangiogenic activity against HUVEC assessed as inhibition of tube formation at 12.5 ug/ml after 24 hrs relative to control; format: functional, cell-based; settings: Homo sapiens
HUVEC [2] = test: Antiangiogenic activity against HUVEC assessed as inhibition of cell migration at 10 ug/ml after 24 hrs by wound healing assay relative to control; format: functional; settings: Homo sapiens
CCRF S-180 = test: Antitumor activity against mouse S180 cells allografted in ICR mouse assessed as tumor growth inhibition at 200 mg/kg, ig qd administered for 6 days relative to vehicle-treated control; format: functional; settings: CCRF S-180, po, 144 h, route intragastric, read-out: TGI
HUVEC [3] = test: Antiangiogenic activity against HUVEC assessed as inhibition of cell migration at 2.5 ug/ml after 24 hrs by wound healing assay relative to control; format: functional; settings: Homo sapiens
HUVEC [4] = test: Cytotoxicity against HUVEC assessed as mitochondrial metabolism after 48 hrs by MTT assay; format: cell-based, Homo sapiens; settings: for pIC50: Homo sapiens, HUVEC; for Activity: human, huvec
Mus musculus = test: Toxicity in ICR mouse allografted with mouse S180 cells assessed as body weight loss at 200 mg/kg, ig qd administered for 6 days relative to vehicle-treated control; format: organism-based, CCRF S-180; parameters: dose 200 mg/kg, route intragastric; settings: in vivo, po, 144 h
[5] = Cytotoxicity against human SKBR3 cells after 48 hrs by MTT assay; format: functional, cell-based; settings: SK-BR-3, 48 h
[6] = Cytotoxicity against human JeKo1 cells after 48 hrs by MTT assay; format: functional, cell-based; settings: JeKo-1, 48 h
[7] = Cytotoxicity against human Bel7402 cells after 48 hrs by MTT assay; format: functional, cell-based; settings: Bel-7402, 48 h
[8] = Cytotoxicity against human NCI-460 cells after 48 hrs by MTT assay; format: functional, cell-based; settings: NCI-460, 48 h
[9] = Cytotoxicity against human BGC823 cells after 48 hrs by MTT assay; format: functional, cell-based; settings: BGC-823, 48 h

Compound | pIC50 (MCF7) | pIC50 (HL-60) | pIC50 (SiHa) | pIC50 (A549) | pIC50 (Ishikawa) | pIC50 (HeLa) | pIC50 (BeWo) | Activity (HUVEC [1]) | inhibition at 10 µg/mL (HUVEC [2]) [%] | inhibition in vivo at 200 mg/kg (CCRF S-180) [%] | inhibition at 2.5 µg/mL (HUVEC [3]) [%] | pIC50 (HUVEC [4]) | Activity (HUVEC [4]) | Activity (Mus musculus) [%] | IC50 [5] [µg/mL] | IC50 [6] [µg/mL] | pIC50 [7] | pIC50 [8] | pIC50 [9]
CCCCNC(=O)Cc1cccc2c(=O)c3ccc(C)c(C)c3oc12 | 4.36 | 4.35 | < 4.00 | 4.33 | < 4.00 | < 4.00 | < 4.00 |  |  |  |  |  |  |  |  |  |  |  | 
Cc1ccc2c(=O)c3cccc(CC(=O)Nc4ccc(Cl)cn4)c3oc2c1C | 4.02 | 4.09 | < 4.00 | < 4.00 | < 4.00 | < 4.00 | < 4.00 |  |  |  |  |  |  |  |  |  |  |  | 
Cc1ccc2c(=O)c3cccc(CC(=O)Nc4ccc(Cl)cc4)c3oc2c1C | < 4.00 | 4.17 | 4.33 | 5.03 | < 4.00 | < 4.00 | 4.49 | Active | 65.8 | 27.8 | 45.6 | 5.16 | Dose-dependent effect | 12.37 |  |  |  |  | 
CCC/C=C/C(=O)NNC(=O)Cc1cccc2c(=O)c3ccc(C)c(C)c3oc12 |  |  |  |  |  |  |  |  |  |  |  |  |  |  | > 10 | > 10 |  |  | 
Cc1ccc2c(=O)c3cccc(CC(=O)N/N=C/c4cc(Cl)ccc4O)c3oc2c1C | < 4.00 | 4.68 | < 4.00 | 4.94 | 4.16 | 4.44 | 4.12 |  |  |  |  | < 4.70 |  |  | > 10 | > 10 | < 4.00 | < 4.00 | < 4.00
COc1cc(/C=N/NC(=O)Cc2cccc3c(=O)c4ccc(C)c(C)c4oc23)ccc1O |  |  |  | < 4.00 |  |  |  |  |  |  |  |  |  |  |  |  |  |  | 
Cc1ccc2c(=O)c3cccc(CC(=O)N/N=C/c4ccccc4O)c3oc2c1C | < 4.00 | 4.28 | < 4.00 | 4.67 | < 4.00 | < 4.00 | 4.17 |  |  |  |  |  |  |  | > 10 | > 10 | < 4.00 | < 4.00 | < 4.00
Cc1ccc2c(=O)c3cccc(CC(=O)Nc4ccc(Cl)c(Cl)c4)c3oc2c1C | < 4.00 | 4.37 | 4.02 | 4.04 | < 4.00 | 4.73 | < 4.00 | Active | 89.7 | 29.6 | 67.6 | 5.19 | Dose-dependent effect | 12.87 |  |  |  |  | 
Cc1ccc2c(=O)c3cccc(CC(=O)N/N=C/c4ccc5c(c4)OCO5)c3oc2c1C | < 4.00 | < 4.00 | < 4.00 | 4.06 | < 4.00 | < 4.00 | < 4.00 |  |  |  |  |  |  |  |  |  | < 4.00 | < 4.00 | < 4.00
CCCCCC(=O)NNC(=O)Cc1cccc2c(=O)c3ccc(C)c(C)c3oc12 |  |  |  |  |  |  |  |  |  |  |  |  |  |  | > 10 | > 10 |  |  | 
COc1cc(/C=N/NC(=O)Cc2cccc3c(=O)c4ccc(C)c(C)c4oc23)cc(OC)c1OC | < 4.00 | < 4.00 | < 4.00 | 4.81 | < 4.00 | < 4.00 | < 4.00 |  |  |  |  |  |  |  |  |  |  |  | 
CCOC(=O)CCNC(=O)Cc1cccc2c(=O)c3ccc(C)c(C)c3oc12 | 4.39 | 4.10 | 4.01 | 4.46 | < 4.00 | < 4.00 | 4.58 |  |  |  |  |  |  |  |  |  | < 4.00 | < 4.00 | 4.12
Cc1ccc2c(=O)c3cccc(CC(=O)N/N=C/c4ccc(O)c(O)c4)c3oc2c1C |  |  |  | < 4.00 |  |  |  |  |  |  |  |  |  |  |  |  |  |  | 
Cc1ccc2c(=O)c3cccc(CC(=O)N/N=C/c4ccc(O)cc4)c3oc2c1C | < 4.00 | < 4.00 | < 4.00 | 4.44 | < 4.00 | < 4.00 | 4.13 |  |  |  |  |  |  |  |  |  |  |  | 
CCOC(=O)c1ccc(NC(=O)Cc2cccc3c(=O)c4ccc(C)c(C)c4oc23)cc1 | < 4.00 | 4.04 | < 4.00 | 4.40 | < 4.00 | < 4.00 | 4.34 |  |  |  |  |  |  |  |  |  | < 4.00 | < 4.00 | < 4.00
COc1ccc(/C=N/NC(=O)Cc2cccc3c(=O)c4ccc(C)c(C)c4oc23)cc1 | < 4.00 | < 4.00 | < 4.00 | < 4.00 | 4.04 | < 4.00 | < 4.00 |  |  |  |  |  |  |  |  |  |  |  | 
